Data taken from patent US20230331817A1 (The Regents of the University of California, priority 2020, published 2023).
Read-outs that look alike come from different tables or passages of the source.

Tests used:
[1] = test system: mouse tail bleeding model; details: cited from earlier work
[2] = biological target: T1, human plasmin (Homo sapiens, UniProt P00747); test: Protease inhibition assay, plasmin (S-2251 amidolytic activity); format: biochemical; details: 3 nM plasmin; 1 hour at room temperature; tight-binding equation
T1 construct: purchased Hematologic Technologies Inc (Essex Junction, VT)
T1 sequence (P00747 97-580 limits assumed): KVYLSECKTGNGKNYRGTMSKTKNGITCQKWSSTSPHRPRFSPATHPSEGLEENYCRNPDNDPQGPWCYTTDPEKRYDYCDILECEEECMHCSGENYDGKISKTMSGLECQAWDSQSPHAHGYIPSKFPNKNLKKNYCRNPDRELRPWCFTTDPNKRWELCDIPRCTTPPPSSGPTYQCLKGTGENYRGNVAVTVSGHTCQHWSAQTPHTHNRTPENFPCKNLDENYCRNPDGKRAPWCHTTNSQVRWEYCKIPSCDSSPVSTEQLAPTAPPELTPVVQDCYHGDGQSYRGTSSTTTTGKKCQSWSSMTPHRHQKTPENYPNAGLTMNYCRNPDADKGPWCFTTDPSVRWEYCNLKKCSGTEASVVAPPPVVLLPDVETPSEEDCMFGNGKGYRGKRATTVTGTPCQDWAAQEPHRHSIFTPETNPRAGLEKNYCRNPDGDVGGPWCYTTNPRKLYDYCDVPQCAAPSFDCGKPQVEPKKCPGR
T1 sequence (P00747 581-810 limits assumed): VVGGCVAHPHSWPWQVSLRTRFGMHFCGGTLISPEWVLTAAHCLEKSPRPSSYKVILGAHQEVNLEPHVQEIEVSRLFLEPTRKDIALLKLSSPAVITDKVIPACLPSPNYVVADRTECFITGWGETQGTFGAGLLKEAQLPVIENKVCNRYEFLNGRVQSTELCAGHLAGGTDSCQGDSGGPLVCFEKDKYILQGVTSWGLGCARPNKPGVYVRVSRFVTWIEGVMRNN
Method: (§1) All reactions were carried out in TBS, pH 7.5 (50 mM Tris-HCL, pH 7.5, containing 100 mM NaCl), containing 0.1 mg bovine serum albumin/ml (TBS/BSA) and 2 mM Ca2+(TBS/BSA/Ca2+, pH 7.5). […] The inhibition constant, K* was determined using the nonlinear regression data analysis program Grafit.
(§2) Ki values were obtained by correcting for the effect of substrate according to Beith (38), using equation 2, where (S) is substrate concentration and KM is specific for each enzyme.
Reactions were carried out in TBS/BSA and 2 mM calcium. […] Synthetic substrate for plasmin was then added to a final concentration of 1 KM, and residual amidolytic activity was measured in a kinetic microplate reader (Molecular Devices).

[3] = biological target: T2, FVIIa/sTF (Homo sapiens, UniProt P08709); test: Protease inhibition assay, FVIIa/soluble tissue factor; format: biochemical; details: 20 nM FVIIa/sTF; read-out: Ki for Factor VIIa/soluble tissue factor
T2 construct: human factor VIIa (FVIIa) was prepared as described previously (34)
T2 sequence (P08709 213-466 limits assumed): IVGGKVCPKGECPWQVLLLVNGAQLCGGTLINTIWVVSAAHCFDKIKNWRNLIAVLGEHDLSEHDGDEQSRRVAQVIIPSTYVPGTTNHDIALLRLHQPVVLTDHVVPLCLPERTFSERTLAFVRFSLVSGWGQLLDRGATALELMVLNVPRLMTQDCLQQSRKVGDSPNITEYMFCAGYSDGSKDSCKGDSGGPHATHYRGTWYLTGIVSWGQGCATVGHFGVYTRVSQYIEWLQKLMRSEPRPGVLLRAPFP
T2 sequence (P08709 61-212 limits assumed): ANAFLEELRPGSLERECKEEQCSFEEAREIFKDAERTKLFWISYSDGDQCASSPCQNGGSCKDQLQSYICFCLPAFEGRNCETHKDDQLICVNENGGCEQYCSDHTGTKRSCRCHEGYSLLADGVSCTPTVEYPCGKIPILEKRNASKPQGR
T2 sequence (P13726 33-251 partner limits assumed): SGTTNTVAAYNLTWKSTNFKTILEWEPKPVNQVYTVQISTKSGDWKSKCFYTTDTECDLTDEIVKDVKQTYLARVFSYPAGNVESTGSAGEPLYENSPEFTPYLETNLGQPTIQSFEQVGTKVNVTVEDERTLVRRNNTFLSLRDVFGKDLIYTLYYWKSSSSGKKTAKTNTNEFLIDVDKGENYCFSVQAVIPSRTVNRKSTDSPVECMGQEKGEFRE
Method: as §1, §2

[4] = biological target: T3, FXa (Homo sapiens, UniProt P00742); test: Protease inhibition assay, factor Xa; format: biochemical; details: 1 nM FXa
T3 construct: FXa, factor Xa
T3 sequence (P00742 235-488 limits assumed): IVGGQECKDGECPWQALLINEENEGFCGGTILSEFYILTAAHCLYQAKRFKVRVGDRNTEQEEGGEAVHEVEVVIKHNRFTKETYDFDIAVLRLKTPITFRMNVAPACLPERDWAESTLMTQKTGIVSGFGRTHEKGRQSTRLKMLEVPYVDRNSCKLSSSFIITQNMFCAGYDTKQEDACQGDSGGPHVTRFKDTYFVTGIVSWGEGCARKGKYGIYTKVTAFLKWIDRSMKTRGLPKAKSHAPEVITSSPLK
T3 sequence (P00742 41-179 limits assumed): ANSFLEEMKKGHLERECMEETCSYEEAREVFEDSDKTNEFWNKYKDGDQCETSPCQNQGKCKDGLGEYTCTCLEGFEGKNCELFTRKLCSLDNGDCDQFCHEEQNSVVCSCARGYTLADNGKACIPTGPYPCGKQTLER
Method: FIG. 2. Data from Equilibrium inhibition constants (Ki) of KD1Y11T/R15KL17R-KT with plasmin, FXIa, kallikrein (KLK), FVIIa/sTF and FXa. Percent activity of 3 nM human plasmin remaining in the presence of various concentrations (0.05 to 19.2 nM) of KD1Y11T/R15KL17R-KT (●) or BPTI (◯). And percent activity of 1 nM human FXIa (▴), 1 nM human kallikrein (●), 20 nM human FVIIa/sTF (Δ) and 1 nM FXa (♦) remaining in the presence of various concentrations (1 μM to 30 μM) of KD1Y11T/R15KL17R-KT.
Ki values for each inhibitor were calculated using the tight binding equations.

[5] = test system: HUVEC; format: cell-based, human
Method: (§3) Resazurin reduction assay (Fisher Scientific) was used to evaluate the potential cytotoxicity of antifibrinolytic agents toward primary human endothelial cells and skin fibroblasts. Phosphate buffer that was used to dissolve the samples was included as negative control. The assay is based on reduction of the non-fluorescent dye resazurin, to the highly fluorescent resorufin by viable cells. […] Briefly, cells in 96-well cell culture plates were treated with different concentrations of antifibrinolytic compounds (as described above). After 24 hours resazurin reagent was added to each well and the plates were incubated at 37° C. for 4 hours. Fluorescence was measured by the FLUOstar Omega Microplate Reader (BMG Labtech) using an excitation wavelength of 544 nm and an emission wavelength of 590 nm. Each assay was done in duplicate, with three replicates each. The viability was evaluated based on comparison with untreated cells.

[6] = test system: primary human dermal skin fibroblasts; test: Resazurin reduction (alamarBlue) viability assay, skin fibroblasts; format: cell-based
Method: as §3

[7] = test system: HUVEC; test: Caspase 3/7 assay, HUVEC; format: cell-based, human; details: 24 hours; 30 μM KD1TM, 30 μM BPTI, 60 mM EACA, 30 mM TXA
Method: (§4) The influence of antifibrinolytic agents on apoptosis in cells was detected using the Caspase-Glo 3/7 Assay kit (Promega). Caspase 3 and 7 are activated in cells that undergo apoptosis. The assay provides a luminogenic substrate for caspase 3 and 7. Enzymatic activity leads to luminescence, which is proportional to the amount of caspase activity present. Cells were seeded in 96-well plates and treated with antifibrinolytic agents or phosphate buffer (solvent control). Taxol was included as positive control. After 24 hours of treatment, caspase reagent was added to each well, mixed and incubated for 1 hour at room temperature. Luminescence was measured using the FLUOstar Omega Microplate Reader (BMG Labtech).

[8] = test system: HUVEC; details: 24 hours; 30 μM KD1TM, 30 μM BPTI, 60 mM EACA, 30 mM TXA
Source text: (§5) Primary human pooled umbilical vein endothelial cells (HUVEC) were obtained from ATCC. The cells were maintained in Vascular Cell Basal Medium (ATCC), supplemented with the Endothelial Cell Growth Kit-BBE (ATCC) and Penicillin-Streptomycin-Amphotericin B (ATCC). Primary human dermal skin fibroblasts were obtained from LONZA and maintained in Fibroblast Basal Medium (FBMTM, LONZA), supplemented with a cocktail of growth factors, fetal bovine serum and antibiotics (FGMTM-2 SingleQuots™, LONZA). All cells were maintained in a humidified 5% C02 atmosphere at 37° C. and were passaged once they reached 80% confluence. All experiments were performed with cells in the logarithmic growth phase.
(§6) For toxicity studies, cells were seeded into 96-well or 24-well cell culture plates at 3,500 cells/cm2 and were used for experiments once they reached 80% confluence.
(§7) Cell toxicity and cell death was evaluated with the CellTox™ Green Cytotoxicity Assay (Promega). This assay measures changes in membrane integrity that occur as a result of cell death. The dye used in the system is excluded from viable cells but binds to DNA in compromised cells, which results in a fluorescent signal. We measured cell death in HUVEC and primary fibroblasts treated with antifibrinolytic agents at 4 concentrations (as indicated above) with triplicates per concentration in 24-well plates after 24 hours of exposure. Hoechst (Thermo Fisher Scientific) was used to stain all nuclei. Images of cells were captured using an inverted microscope (Nicon; Edipse T2000 TE). Green fluorescent cells (FITC filter) and Hoechst stained cells (DAPI filter) were counted using Image J software.

[9] = test system: primary human dermal skin fibroblasts; details: 24 hours; 30 μM KD1TM, 30 μM BPTI, 60 mM EACA, 30 mM TXA
Source text: as §5, §6, §7

[10] = cited from earlier work
[11] = cited from earlier work; remark: listed apart in the source
[12] = test system: primary human dermal skin fibroblasts; test: Caspase 3/7 assay, skin fibroblasts; format: cell-based; details: 24 hours; 30 μM KD1TM, 30 μM BPTI, 60 mM EACA, 30 mM TXA
Method: as §4

Compound | Reduction of blood loss [1] | Ki [2] [nM] | Ki [3] [nM] | Ki [4] [nM] | HUVEC viability (FIG. 4) [5] | Fibroblast cell viability (FIG. 5) [6] | Apoptosis, caspase-3/7 activity, HUVEC (FIG. 6) [7] | HUVEC cytotoxicity, CellTox green (FIG. 7) [8] | Fibroblasts cytotoxicity, CellTox green (FIG. 8) [9] | half-life ([10]; human, in vivo) [h] | half-life ([11]; in vivo) [h] | Cell viability, primary human skin fibroblasts (Example 1) ([6]; 24 hours, KD1-Y11T/L17R-KT and aprotinin 0.1 μM-30 μM, EACA 1-60 mM, TXA 0.2-30 mM) | Fibroblast cell viability (FIG. 5) ([6]; 24 hours, indicated concentrations, p>0.05) | Apoptosis, caspase-3/7 activity, skin fibroblasts (FIG. 6) [12] | half-life ([10]; humans) [h] | plasma half-life ([11]; rats and dogs) [h]
Textilinin-1 [Q8008] | as effective as aprotinin in reducing blood loss |  |  |  |  |  |  |  |  |  |  |  |  |  |  | 
aprotinin |  | 0.5 ± 0.1 | > 3000 | > 3000 | not significantly different from the untreated cells | not significantly different from the untreated cells | did not induce apoptosis | did not induce toxicity | did not induce toxicity | ~2 | ~1.17 |  |  |  |  | 
NC[C@H]1CC[C@H](C(=O)O)CC1 [TXA, tranexamic acid] |  |  |  |  | not significantly different from the untreated cells |  |  |  |  |  |  | equally unchanged | not significantly different from the untreated cells | not in fibroblasts | ~2 | ~2
